Source: US20080025946A1, “INTERLEUKIN 21 AND TYROSINE KINASE INHIBITOR COMBINATION THERAPY” (priority 2006, published 2008)
Where two headings read alike, the source gives them in different places.

Tests used:
[1] = system: RenCa.2 tumors; experiment: Concurrent mIL-21 and high dose sorafenib: survival of mice bearing RenCa.2 tumors; type: in vivo, mouse; settings: BALB/c mice, s.c. RenCa; from day 5: 50 μg mIL-21 i.p. 5/9/5 and/or 60 mg/kg sorafenib oral gavage 10 days; n=10/group
Method: Survival of mice receiving the treatments were monitored over 35 days.
Survival of mice were monitored over 35 days.
Ten-week old female BALB/c mice (Charles River Laboratories) were injected s.c. on the right flank with 0.1×10^6 RenCa cells on Day 0. […] Tumor growth was monitored 3×/week for 3 weeks using caliper measurements. Survival of mice were monitored over 35 days. Tumor bearing mice were terminated as per IACUC policies with regard to maximal tumor size (1200 mm^3) or weight loss of >=20% of initial body weight.

[2] = system: RenCa.2 tumor; experiment: Concurrent mIL-21 and sub-maximal sorafenib: RenCa.2 tumor growth in mice; type: in vivo, mouse
Method: Tumor volume was monitored 3×/week for 3 weeks.
Ten-week old female BALB/c mice (Charles River Laboratories) were injected s.c. on the right flank with 0.1×10^6 RenCa.2 cells on Day 0. […] Tumor growth was monitored 3×/week for 3 weeks using caliper measurements. Tumor volume is calculated using the formula ½*(B)2*L (mm3).

[3] = system: murine model of renal adenocarcinoma (RenCa); settings: cited from earlier work
[4] = system: RenCa.2 mouse renal cell carcinoma model; settings: RenCa.2 model

Row | SMILES | % mice surviving at Day 35 [1] [%] | inhibition of tumor growth (in words) ([2]; 25 μg mIL-21 and/or 2 mg/kg sorafenib, RenCa.2 model) | Tumor volume mm3 + SD(Day21) ([2]; BALB/c mice, s.c. RenCa.2, from day 3: 25 μg mIL-21 i.p. 5 days and/or 2 mg/kg sorafenib oral gavage 10 days, Day 21, n=10/group) | inhibition of tumor growth ([3]; 7.5 mg/kg daily) [%] | inhibition of tumor growth ([3]; 60 mg/kg daily) [%] | doses at which partially effective in mediating tumor clearance [4] | doses at which maximally effective in mediating tumor clearance ([4]; sunitinib orally administered)
1 | CNC(=O)c1cc(Oc2ccc(NC(=O)Nc3ccc(Cl)c(C(F)(F)F)c3)cc2)ccn1 [sorafenib] | 50 | partially effective | 790.3 + 398.8 mm3 | 30 | 84 | below 10 mg/kg | 
2 | CCN(CC)CCNC(=O)c1c(C)[nH]c(/C=C2\C(=O)Nc3ccc(F)cc32)c1C [sunitinib] |  |  |  |  |  |  | above 40 mg/kg
